Experimental data from paper PMC12040169 (PLOS Biology, 2025).

Assay: in vitro
Settings: human, hela cells, % viability

Compound | viability at 28.5 h, 10 µM
COc1ccc([C@H]2CN(C(=O)c3ccccc3)[C@@H]3CCN(Cc4cccs4)C[C@H]23)cc1 [CBK285582] | 103%
COc1ccc([C@H]2CN(C(=O)c3ccccc3)[C@@H]3CCN(Cc4ccccc4C)C[C@H]23)cc1 [CBK285583] | 105%
COc1ccc([C@H]2CN(C(=O)c3ccccc3)[C@@H]3CCN(Cc4ccsc4)C[C@H]23)cc1 [CBK285585] | 103%
O=C(Nc1ccccc1Oc1ccc(F)cc1)c1ccc(Cn2cncn2)cc1 [CBK285587] | 118%
O=C(NCCc1ccc(Cl)cc1)C1(Cc2ccc(-c3cccnc3)cc2)CCOCC1 [CBK285589] | 94.6%
O=C(NCCc1ccccc1Cl)C1(Cc2ccc(-c3cccnc3)cc2)CCOCC1 [CBK285590] | 95.5%
COc1ccc([C@H]2CN(C(=O)c3ccccc3)[C@@H]3CCN(Cc4ccccc4)C[C@H]23)cc1 [CBK285592] | 98.5%
COc1ccccc1-c1cccc(CC2(C(=O)NCCc3ccccc3)CCOCC2)c1 [CBK285593] | 93.6%
NC(=O)C1(Cc2ccccc2-c2ccccc2)CCN(C(=O)CCc2ccccc2)CC1 [CBK285595] | 107%
CN(C(=O)c1c[nH]nc1-c1ccc(CNC(=O)Cc2ccc(F)cc2)cc1)c1ccccc1 [CBK285599] | 95.9%
Cc1ccc(C(=O)NCc2ccc(-c3n[nH]cc3C(=O)N(C)c3ccccc3)cc2)cc1 [CBK285600] | 98.7%
O=C(c1ccccc1)N1C[C@@H](c2ccsc2)[C@@H]2CN(Cc3ccccc3)CC[C@@H]21 [CBK285602] | 104%
O=C(c1ccccc1)N1C[C@@H](c2ccsc2)[C@@H]2CN(Cc3cccc(Cl)c3)CC[C@@H]21 [CBK285603] | 108%
O=C(c1ccccc1)N1C[C@H](c2ccsc2)[C@H]2CN(Cc3ccsc3)CC[C@H]21 [CBK285604] | 118%
COc1cccc(C(NC(=O)Cc2ccc(-n3nnnc3C)cc2)c2ccccc2)c1 (centres unmarked) [CBK285605] | 93.4%
O=C(NCCc1ccc(Cl)cc1)C1(Cc2cccc(-c3cccnc3)c2)CCOCC1 [CBK285606] | 96.7%
COc1cccc([C@H]2CN(C(=O)c3ccccc3)[C@@H]3CCN(Cc4ccccc4C)C[C@H]23)c1 [CBK285610] | 98.6%
O=C(c1ccccc1)N1C[C@@H](c2ccsc2)[C@@H]2CN(Cc3ccc(Cl)cc3)CC[C@@H]21 [CBK285615] | 100%
COc1cccc(CN2CC[C@H]3[C@@H](C2)[C@H](c2ccsc2)CN3C(=O)c2ccccc2)c1 [CBK285616] | 97.5%
Cc1ccccc1CN1CC[C@H]2[C@@H](C1)[C@H](c1ccsc1)CN2C(=O)c1ccccc1 [CBK285618] | 100%
Cc1cccc(CN2CC[C@H]3[C@@H](C2)[C@H](c2ccsc2)CN3C(=O)c2ccccc2)c1 [CBK285619] | 106%
Cc1ccccc1Cc1cccc(C2CCN(C(=O)Cc3ccccc3)CC2)n1 [CBK285625] | 94.7%
COc1ccc(CN2CCC(c3ncc(C(=O)Nc4ccc(F)cc4)c(C)n3)CC2)cc1 [CBK285629] | 101%
O=C(NC1(c2ccccc2)CCCC1)c1ccc(=O)n(CC(=O)N2CCCCC2)c1 [CBK285631] | 90.5%
Cc1ccc(S(=O)(=O)NCc2ccc(-c3nn(C)cc3-c3ccncc3C)cc2)cc1 [CBK285632] | 89.2%
Cc1cnccc1-c1cn(C)nc1-c1ccc(CNC(=O)c2cccc(N(C)C)c2)cc1 [CBK285633] | 86.5%

Compound | viability at 28.5 h, 10 µM
Cc1cnc2c(C(=O)N3CC(C(=O)N4CCN(c5ccccc5)CC4)C3)cnn2c1 [CBK285641] | 92.4%
CCC(=O)N1CCCC1c1nc(C)c2c(n1)N(Cc1ccccc1OC)CCC2 (centres unmarked) [CBK285642] | 91.9%
Cc1nc(-c2ccc(CNS(=O)(=O)c3ccc(Cl)cc3)cc2)ccc1C(N)=O [CBK285643] | 90.5%
Cc1ccc(-c2cc(C(=O)NCc3ccc(-c4ccc(C(N)=O)c(C)n4)cc3)no2)cc1 [CBK285644] | 116%
COc1cc(CN2C[C@@H](c3ccccc3)[C@@H]3NC(=O)CCCC[C@H]32)cc(OC)c1 [CBK285646] | 89.6%
Nc1ncc(-c2ccc(C(F)(F)F)cc2)c(C2CCCN(C(=O)CN3CCCC3)C2)n1 (centres unmarked) [CBK285649] | 91.6%
COc1ccccc1-c1ccc(NC(=O)CCc2nc3ccccc3[nH]2)cc1 [CBK285651] | 103%
Cc1ccc(C)c(C2CCCN2C(=O)c2ccc(=O)n(CC(=O)N(C)c3ccccc3)c2)c1 (centres unmarked) [CBK285654] | 97.5%
O=C(c1ccccc1F)N1C[C@H](c2ccsc2)[C@H]2CN(Cc3cccc(F)c3)CC[C@H]21 [CBK285660] | 120%
O=C(c1ccccc1F)N1C[C@H](c2ccsc2)[C@H]2CN(Cc3ccsc3)CC[C@H]21 [CBK285661] | 107%
CN(C(=O)Cn1cc(C(=O)NCC(C)(C)c2ccc(F)cc2)ccc1=O)c1ccccc1 [CBK285662] | 108%
Cc1nc(CC(NC(=O)C(c2ccccc2)c2ccccc2)c2ccc(F)cc2)cc(=O)[nH]1 (centres unmarked) [CBK285669] | 101%
COc1ccc(-c2csc(CCNC(=O)Cc3c[nH]c(=O)[nH]c3=O)n2)cc1 [CBK285670] | 92.4%
COc1cccc(CNC(=O)c2cc3c(nc2N)CCN(Cc2cccc(C)c2OC)C3)c1 [CBK285682] | 98.6%
O=C(Nc1ccc(-c2ccc(F)cc2)cc1)c1ccc(N2C(=O)CCC2=O)cc1 [CBK285683] | 98%
CNC(=O)C1(Cc2ccccc2-c2cccs2)CCN(C(=O)COc2ccccc2)CC1 [CBK285684] | 118%
CNC(=O)C1(Cc2ccccc2-c2cccs2)CCN(C(=O)c2ccccc2OC)CC1 [CBK285685] | 107%
CNC(=O)C1(Cc2ccccc2-c2cccs2)CCN(C(=O)Cc2cccc(C)c2)CC1 [CBK285686] | 105%
Cc1ccc2c(c1)C(=O)CC1(CCN(C(=O)Cc3c(C)[nH]c(=O)[nH]c3=O)CC1)O2 [CBK285688] | 91.6%
CCNC(=O)C1(Cc2ccccc2-c2ccccc2)CCN(C(=O)c2cccc(F)c2)CC1 [CBK285689] | 88.7%
NC(=O)C1(Cc2ccccc2-c2cccc(F)c2)CCN(C(=O)c2cccc(F)c2)CC1 [CBK285693] | 96.8%
CCCNC(=O)C1(Cc2ccccc2-c2cccs2)CCN(C(=O)c2ccccc2)CC1 [CBK285694] | 95%
CNC(=O)C1(Cc2ccccc2-c2ccccc2)CCN(C(=O)Cc2ccccc2)CC1 [CBK285695] | 93.3%
CNC(=O)C1(Cc2ccccc2-c2ccccc2)CCN(C(=O)CCC2CCCC2)CC1 [CBK285696] | 89.4%
CNC(=O)C1(Cc2ccccc2-c2cccs2)CCN(C(=O)Cc2ccc(C)cc2)CC1 [CBK285697] | 95%
CCNC(=O)C1(Cc2ccccc2-c2ccccc2)CCN(C(=O)c2csc(C)c2)CC1 [CBK285698] | 93.3%

Compound | viability at 28.5 h, 10 µM
CCNC(=O)C1(Cc2ccccc2-c2ccccc2)CCN(C(=O)c2ccccc2)CC1 [CBK285700] | 109%
Cc1nc(CN2[C@H]3CCCCC(=O)N[C@@]3(C)C[C@H]2c2cccc(C(F)(F)F)c2)cs1 [CBK285701] | 91.1%
CC(C)(Oc1ccc(F)cc1)C(=O)N1CCC(C(=O)NCCc2ccccc2)C1 (centres unmarked) [CBK285702] | 101%
O=C(C1CCN(S(=O)(=O)c2ccc(F)cc2)C1)N1CCN(C2CCCC2)CC1 (centres unmarked) [CBK285703] | 96.6%
Cc1nc2ccccc2c(=O)n1CCC(=O)N1CCc2sccc2C1c1ccco1 (centres unmarked) [CBK285706] | 94.3%
O=C(Nc1nc2c(s1)CCCCC2)C1CCN(S(=O)(=O)c2ccc(F)cc2)C1 (centres unmarked) [CBK285708] | 111%
Cn1c(-c2ccccc2)cnc1NC(=O)C1CCN(S(=O)(=O)c2ccc(F)cc2)C1 (centres unmarked) [CBK285709] | 95.6%
COc1ccc(C2(C(=O)Nc3ccc(-c4ccccc4OC)cc3)CCOCC2)cc1 [CBK285710] | 89.5%
COc1ccccc1-c1ccc(NC(=O)CCn2cnc3ccccc3c2=O)cc1 [CBK285711] | 95.2%
COc1cccc(C(NC(=O)C2COc3ccc(OC)cc3C2)c2ccccc2)c1 (centres unmarked) [CBK285713] | 97.7%
Cc1ccccc1-c1ccccc1CC1(C(=O)N(C)C)CCN(C(=O)CC(C)(C)C)CC1 [CBK285715] | 95.1%
CCNC(=O)C1(Cc2ccccc2-c2ccccc2C)CCN(C(=O)c2ccccc2)CC1 [CBK285716] | 96.6%
CCNC(=O)C1(Cc2ccccc2-c2ccccc2C)CCN(C(=O)C2CCCCC2)CC1 [CBK285717] | 106%
CNC(=O)C1(Cc2cccc(-c3cccs3)c2)CCN(C(=O)c2ccccc2)CC1 [CBK285720] | 88.3%
Cc1ccccc1-c1ccccc1CC1(C(N)=O)CCN(C(=O)c2ccccc2)CC1 [CBK285721] | 89.9%
COc1cccc(C(=O)N2CCC(Cc3ccccc3-c3ccccc3C)(C(N)=O)CC2)c1 [CBK285722] | 94.5%
Cc1ccccc1-c1ccccc1CC1(C(N)=O)CCN(C(=O)Cc2ccccc2)CC1 [CBK285724] | 106%
Cc1ccccc1-c1ccccc1CC1(C(N)=O)CCN(C(=O)CCc2ccccc2)CC1 [CBK285725] | 102%
COc1cccc(C(=O)N2CCC(Cc3ccccc3-c3ccccc3)(C(N)=O)CC2)c1 [CBK285729] | 93.6%
Cc1cccc(CC(=O)N2CCC(Cc3ccccc3-c3ccccc3)(C(N)=O)CC2)c1 [CBK285731] | 103%
CNC(=O)C1(Cc2cccc(-c3cccs3)c2)CCN(C(=O)COc2ccccc2)CC1 [CBK285732] | 95.5%
O=C(Nc1cccc(-c2cccc(F)c2)c1)c1ccccc1Cn1cncn1 [CBK285735] | 87.4%
COc1cccc(C(NC(=O)C2COc3c(cccc3OC)C2)c2ccccc2)c1 (centres unmarked) [CBK285736] | 94.7%
COc1ccc(C(NC(=O)c2ccc(N3C(=O)CCC3=O)cc2)c2ccccc2)cc1 (centres unmarked) [CBK285737] | 93%

Same assay, conditions: human, hela cells, % viability, bulk resorufin, single well

Compound | viability at 28.5 h, 10 µM
O=C(CCC1C(=O)NC(=O)NC1=O)Nc1ccc(Oc2ccc(F)cc2)cc1 [CBK285712] | 88%
